Measurements reported in patent US20260183392A1, “METHODS AND KITS FOR DNA EDITING AND TREATING, AMELIORATING AND/OR PREVENTING CANCER” (FC IP Holdings, LLC, priority 2022, published 2026).

Key:
[1] = tested on: iPSC; assay: Cell viability / cell health of engineered iPSC; type: cell-based
Excerpt: FIGS. 3A-3H: induced pluripotent stem cells (iPSC) engineering according to some embodiments. FIG. 3A: GFP knock-in efficiency (on Day 7) at RAB11A locus in iPSC using cssDNA or dsDNA as donor templates. FIG. 3B: Cell viability of cssDNA- and dsDNA-engineered iPSC as measured on Day 3. FIG. 3C: Does-dependent GFP reporter knock-in using GFP reporter cssDNA targeting RAB11A or B2M locus. FIG. 3D: GFP fluorescence and phase contrast imaging of representative engineered iPSC colony. FIG. 3E: Schematic diagram of cssDNA donor templates for multiplexed reporter gene knock-in at RAB11A and B2M loci. FIG. 3F: Dual knock-in of mCherry and GFP report genes at the same RAB11A locus. FIG. 3G: Dual knock-in of mCherry and GFP report genes at RAB11A locus and B2M locus, respectively. […] GFP knock-in efficiency was assessed on Day 7 post electroporation by flow cytometry. […]
The present study next evaluated small-molecule inhibitors that have been reported to enhance knock-in efficiency, including the DNA-dependent protein kinase (DNA-PK) inhibitor M-3814 and “Alt-R HDR enhancer 2” (HDRe.v2), which is described as a nonhomologous end joining (NHEJ) inhibitor (Kath et al., Mol Ther Methods Clin Dev. 2022 April 12:25:311-330; Shy et al., Nat Biotechnol. 2023 April; 41 (4): 521-531; and Tatiossian et al., Mol Ther. 2021 Mar. 3; 29 (3): 1057-1069). […]

[2] = tested on: TRAC locus in primary T cells; assay: Anti-CD19xCD22 CAR knock-in at TRAC locus in primary T cells (Protein L, flow cytometry); type: cell-based, human; conditions: 2 μg of cssDNA plus 1 μM M-3814; Day 7
Excerpt: FIGS. 7A-7I: CAR-T cell engineering with cssDNA, in accordance with some embodiments. FIG. 7A: Schematic diagram of nonviral CAR-T cell engineering process. Pan T cells are isolated from peripheral blood and activated on day 0 with anti-CD3/anti-CD28 TransAct. Cells are electroporated using the Lonza nucleofector on day 2 with Cas9 RNPs+cssDNA HDR donor templates and then expanded for a total of 7-10 days. FIG. 7B: Representative day 7 flow cytometry graphs showing CAR knock-in for Mock (un-engineered) and cssDNA-engineered T cells with DMSO or 1 μM M-3814 treatments. FIG. 7C: Representative day 7 flow plots and quantifications of CAR knock-in for mock (un-engineered), cssDNA- or AAV6-engineered T cells. Cells were treated with 1 μM M-3814 for 1 day immediately after electroporation. FIG. 7D: Expansion ability of engineered CAR-T cells. FIG. 7E: In vitro killing of NALM6 acute lymphoblastic leukemia cell line with cssDNA-, AAV6-engineered CAR-T cells in comparison to unmodified T cells from same blood donors after 24 hours of co-culture. The in vitro killing measured by live cell imaging using IncuCyte® live cell imaging system. […] FIG. 7G: the data of FIG. 7F, expressed as a bar chart. […] I. FIG. 7I, Tumor burden shown as bioluminescent signal quantified per animal every week over a 21-day period. n=5 mice per group. […]

[3] = tested on: RAB11A locus and TRAC locus in human primary T cells; assay: GFP reporter knock-in at RAB11A or TRAC locus in human primary T cells; type: cell-based; conditions: 1 μM for 24 hours vs DMSO; cssDNA donors; Day 7
Description: FIGS. 5A-5D: Innate immune response in primary T cells, in accordance with some embodiments. FIG. 5A: Schematic diagram of the GFP reporter cssDNA targeting RAB11A locus and TRAC locus (Upper). GFP reporter knock-in efficiency with cssDNA donor templates in human primary T cells. Immediately after electroporation, cells were treated with either DMSO or 1 μM M-3814 for 24 hours. The knock-in efficiency was examined on Day 7 post electroporation. FIG. 5B. Secreted IFN-γ and TNF-α cytokines levels in cultured primary T medium after electroporation with buffer, dsDNA, cssDNA or mRNA molecules. Conditioned media were collected for cytokine analysis using the Ella immunoassay platform with selected panels. FIGS. 5C-5D: Gene set enrichment analysis (GSEA) enrichment analysis of interferon gamma response genes on the differential expression genes (DEG) of from the dsDNA or cssDNA treated primary T cells. […]
Genetically engineered T cell immunotherapies have provided remarkable clinical success to treat B cell acute lymphoblastic leukemia and have the potential to provide therapeutic benefit for numerous other cancers, infectious diseases, and autoimmunity. […] Primary T cells were co-electroplated with respective RNPs, and knock-in efficiency was determined on Day 7 post electroporation by GFP^+ cell percentage using flow cytometry. […]

[4] = tested on: human B2M locus; assay: Screen of crRNA for Cpf1 at human B2M locus (cleavage efficiency)

Row | Molecule | live cell counts ([1]; at the chosen concentrations) | reduction in cell viability ([1]; higher doses, day 4 post-electroporation) | knock-in efficiency (percentage of CAR+ cells) [2] [%] | increase of knock-in efficiency [3] | cleavage efficiency [4]
1 | COc1ccc([C@@H](O)c2cc(-c3ncnc4cc(N5CCOCC5)ccc34)c(F)cc2Cl)nn1 [M-3814] | generally unaffected | roughly 38% | 56.3 | 60-150% | –
2 | Cpf1-crRNA: crRNA for Cpf1 at human B2M locus identified by screening (guide AGUGGGGGUGAAUUCAGUGU; chemistry not fully specified) | – | – | – | – | over 95%
